This test addresses T1, BRM (Homo sapiens, UniProt P51531).
T1 construct: In-Cell Western Screen of BRM Degradation in SW1573 Cells; endogenous in cells; host or cells: SW1573
The experiment in a line: In-cell Western screen of BRM degradation in SW1573 cells (Dmax and DC50). The format is cell-based. In outline: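 Near-infrared imaging on a LI-COR Odyssey (800 and 680 nm channels) quantifies BRM remaining in fixed SW1573 cells. Cells are dosed for 18-20 h at 0.1% final DMSO, and degradation is expressed as Dmax and DC50.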

[1] abbreviates: BRM degradation, SW1573 cells, read-out: DC50.
The mark [2] stands for this setting: BRM degradation, SW1573 cells, when tested at the top concentration of between 0.3 and 10 μM, read-out: Dmax (%) (% degraded).
The mark [3] stands for this setting: BRM degradation, SW1573 cells, read-out: Dmax (% degraded).
Setting [4] is: BRM degradation, SW1573 cells, tested at the top concentration of between 0.3 and 10 μM, read-out: Dmax (%) (% degraded).

Molecules are shown by their SMILES. Read-outs that look alike come from different tables or passages of the source.

T1 sequence (P51531 whole entry): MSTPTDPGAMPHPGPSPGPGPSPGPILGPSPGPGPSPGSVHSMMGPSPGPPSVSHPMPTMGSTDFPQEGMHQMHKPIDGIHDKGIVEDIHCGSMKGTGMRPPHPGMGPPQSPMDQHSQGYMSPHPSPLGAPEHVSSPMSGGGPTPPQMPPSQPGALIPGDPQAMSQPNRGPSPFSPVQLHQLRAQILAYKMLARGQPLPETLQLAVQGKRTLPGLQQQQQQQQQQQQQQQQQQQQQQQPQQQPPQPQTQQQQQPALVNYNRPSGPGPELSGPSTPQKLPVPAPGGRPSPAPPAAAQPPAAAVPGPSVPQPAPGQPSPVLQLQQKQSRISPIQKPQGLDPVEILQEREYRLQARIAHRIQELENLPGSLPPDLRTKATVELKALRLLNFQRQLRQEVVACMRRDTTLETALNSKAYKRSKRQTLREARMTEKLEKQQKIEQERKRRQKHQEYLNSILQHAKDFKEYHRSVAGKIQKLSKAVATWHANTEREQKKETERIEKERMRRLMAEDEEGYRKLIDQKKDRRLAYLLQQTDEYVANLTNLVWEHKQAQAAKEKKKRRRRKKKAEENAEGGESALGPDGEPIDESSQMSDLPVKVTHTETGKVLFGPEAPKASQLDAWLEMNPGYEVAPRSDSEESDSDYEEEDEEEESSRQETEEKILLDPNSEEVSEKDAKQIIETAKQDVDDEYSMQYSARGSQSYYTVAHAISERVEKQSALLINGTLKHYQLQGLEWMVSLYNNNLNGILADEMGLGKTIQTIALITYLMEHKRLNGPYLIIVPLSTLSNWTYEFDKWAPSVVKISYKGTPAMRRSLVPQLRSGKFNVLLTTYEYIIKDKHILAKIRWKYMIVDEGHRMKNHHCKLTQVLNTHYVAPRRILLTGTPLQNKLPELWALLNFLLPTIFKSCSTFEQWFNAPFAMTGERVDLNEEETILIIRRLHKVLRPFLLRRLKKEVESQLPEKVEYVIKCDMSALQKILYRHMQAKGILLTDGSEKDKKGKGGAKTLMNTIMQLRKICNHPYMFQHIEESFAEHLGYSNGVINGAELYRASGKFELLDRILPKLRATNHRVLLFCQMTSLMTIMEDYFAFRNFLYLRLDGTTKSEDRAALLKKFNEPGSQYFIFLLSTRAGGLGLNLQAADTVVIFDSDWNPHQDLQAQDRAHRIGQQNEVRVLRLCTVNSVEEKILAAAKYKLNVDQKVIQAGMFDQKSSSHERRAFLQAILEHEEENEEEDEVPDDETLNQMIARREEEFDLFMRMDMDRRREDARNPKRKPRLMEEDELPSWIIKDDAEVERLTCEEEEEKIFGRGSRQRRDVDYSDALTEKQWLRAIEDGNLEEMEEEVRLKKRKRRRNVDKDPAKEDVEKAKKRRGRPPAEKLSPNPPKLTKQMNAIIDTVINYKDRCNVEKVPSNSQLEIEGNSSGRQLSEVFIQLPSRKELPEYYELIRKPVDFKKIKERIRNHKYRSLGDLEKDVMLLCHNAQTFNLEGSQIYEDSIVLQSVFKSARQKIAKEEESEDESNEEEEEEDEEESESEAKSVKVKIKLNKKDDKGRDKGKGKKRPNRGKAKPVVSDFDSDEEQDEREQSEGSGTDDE

Usually DC50 stands for the concentration at which degradation of the target reaches its halfway point. In the case of `Cc1ncsc1-c1ccc([C@@H](C)NC(=O)[C@@H]2C[C@@H](O)CN2C(=O)[C@@H](c2cc(OCCN3CCC(O[C@H]4C[C@H](Oc5cc(N6C7CCC6CN(c6cc(-c8ccccc8O)nnc6N)C7)ccn5)C4)CC3)no2)C(C)C)nn1` [compound 443, (2S,4R)-1-((2R)-2-(3-(2-(4-((1r,3R)-3-((4-(3-(3-amino-6-(2-hydroxyphenyl)pyridazin-4-yl)-3,8-diazabicyclo[3.2.1]octan-8-yl)pyridin-2-yl)oxy)cyclobutoxy)piperidin-1-yl)ethoxy)isoxazol-5-yl)-3-methylbutanoyl)-4-hydroxy-N-((R)-1-(6-(4-methylthiazol-5-yl)pyridazin-3-yl)ethyl)pyrrolidine-2-carboxamide], for the setting “degradation of BRM, read-out: BRM DC50”, the half-maximal degradation concentration (DC50) is over 30 nM.
By Dmax is commonly meant the largest share of the target that was removed. Consider `CCOC[C@H](NC(=O)[C@@H]1C[C@@H](O)CN1C(=O)[C@@H](c1cc(OCCN2CCN(CCOc3cc(N4C5CCC4CN(c4cc(-c6ccccc6O)nnc4N)C5)ccn3)CC2)no1)C(C)C)c1ccc(-c2scnc2C)cc1` [compound 128, (2S,4R)-1-((2R)-2-(3-(2-(4-(2-((4-(3-(3-amino-6-(2-hydroxyphenyl)pyridazin-4-yl)-3,8-diazabicyclo[3.2.1]octan-8-yl)pyridin-2-yl)oxy)ethyl)piperazin-1-yl)ethoxy)isoxazol-5-yl)-3-methylbutanoyl)-N-((R)-2-ethoxy-1-(4-(4-methylthiazol-5-yl)phenyl)ethyl)-4-hydroxypyrrolidine-2-carboxamide], for which the half-maximal degradation concentration (DC50) under setting [1] was under 2.5 nM. The maximal degradation (Dmax) under setting [2] was over 75%.
As to `CC(C)[C@@H](C(=O)N1C[C@H](O)C[C@H]1C(=O)N[C@@H](C)c1ccc(C#N)cc1)c1cc(N2CCC(CN3CCC(O[C@H]4C[C@H](Oc5cc(N6C7CCC6CN(c6cc(-c8ccccc8O)nnc6N)C7)ccn5)C4)CC3)CC2)no1` [compound 640, (2S,4R)-1-((2R)-2-(3-(4-((4-((1r,3r)-3-((4-(3-(3-amino-6-(2-hydroxyphenyl)pyridazin-4-yl)-3,8-diazabicyclo[3.2.1]octan-8-yl)pyridin-2-yl)oxy)cyclobutoxy)piperidin-1-yl)methyl)piperidin-1-yl)isoxazol-5-yl)-3-methylbutanoyl)-N-((S)-1-(4-cyanophenyl)ethyl)-4-hydroxypyrrolidine-2-carboxamide], the DC50 under setting [1] was under 2.5 nM. The greatest degradation seen (Dmax) under setting [3] was over 75%.
Regarding `Cc1ncsc1-c1ccc(CNC(=O)[C@@H]2C[C@@H](O)CN2C(=O)[C@@H](c2cc(OCCN3CCN(CCOc4cc(N5C6CCC5CN(c5cc(-c7ccccc7O)nnc5N)C6)ccn4)C[C@@H]3C)no2)C(C)C)cc1` [compound 210, (2S,4R)-1-((2R)-2-(3-(2-((2S)-4-(2-((4-(3-(3-amino-6-(2-hydroxyphenyl)pyridazin-4-yl)-3,8-diazabicyclo[3.2.1]octan-8-yl)pyridin-2-yl)oxy)ethyl)-2-methylpiperazin-1-yl)ethoxy)isoxazol-5-yl)-3-methylbutanoyl)-4-hydroxy-N-(4-(4-methylthiazol-5-yl)benzyl)pyrrolidine-2-carboxamide], the half-maximal degradation concentration (DC50) under setting [1] is under 2.5 nM. Besides, under setting [4], the Dmax was over 75%.
Turning to `Cc1ncsc1-c1ccc([C@H](C)NC(=O)[C@@H]2C[C@@H](O)CN2C(=O)[C@@H](c2cc(OCC#CC34CC(CN[C@H]5C[C@H](Oc6cc(N7C8CC[C@@H]7CN(c7cc(-c9ccccc9O)nnc7N)C8)ccn6)C5)(C3)C4)no2)C(C)C)cc1` [compound 382, (2S,4R)-1-((2R)-2-(3-((3-(3-((((1r,3R)-3-((4-(3-(3-amino-6-(2-hydroxyphenyl)pyridazin-4-yl)-3,8-diazabicyclo[3.2.1]octan-8-yl)pyridin-2-yl)oxy)cyclobutyl)amino)methyl)bicyclo[1.1.1]pentan-1-yl)prop-2-yn-1-yl)oxy)isoxazol-5-yl)-3-methylbutanoyl)-4-hydroxy-N-((S)-1-(4-(4-methylthiazol-5-yl)phenyl)ethyl)pyrrolidine-2-carboxamide], for the setting “% degraded, when tested at the top concentration of between 0.3 and 10 μM”, the “BRM Dmax (%)” value is given as “A (A > 75)”. Moreover, under “target protein degradation, read-out: BRM DC50”, the DC50 is under 2.5 nM.
Turning to `Cc1ncsc1-c1ccc([C@H](C)NC(=O)[C@@H]2C[C@@H](O)CN2C(=O)[C@@H](c2cc(OCCN3CC[C@@H](O[C@H]4C[C@H](Oc5cc(N6C7CCC6CN(c6cc(-c8ccccc8O)nnc6N)C7)ccn5)C4)C[C@H]3C)no2)C(C)C)cc1` (single isomer, unassigned) [compound 634], the 50% degradation concentration (DC50) under setting [1] is under 2.5 nM. The Dmax under setting [3] was over 75%.
Regarding `Cc1ncsc1-c1ccc(CNC(=O)[C@@H]2C[C@@H](O)CN2C(=O)[C@@H](NC(=O)COCCOCCOCCOc2cncc(N3C4CCC3CN(c3cc(-c5ccccc5O)nnc3N)C4)n2)C(C)(C)C)cc1` [compound 34, (2S,4R)-1-[(2S)-2-[1-(6-[3-[3-amino-6-(2-hydroxyphenyl)pyridazin-4-yl]-3,8-diazabicyclo[3.2.1]octan-8-yl]pyrazin-2-yl)-1,4,7,10-tetraoxadodecan-12-amido]-3,3-dimethylbutanoyl]-4-hydroxy-N-[[4-(4-methyl-1,3-thiazol-5-yl)phenyl]methyl]pyrrolidine-2-carboxamide], the DC50 under setting [1] is over 30 nM. Also, under setting [2], the Dmax is over 75%.
Consider `CC(C)[C@@H](C(=O)N1C[C@H](O)C[C@H]1C(=O)N[C@@H](C)c1ccc(-c2nccn2C)cc1)c1cc(OCCN2CCN(CCOc3cc(N4C5CCC4CN(c4cc(-c6ccccc6O)nnc4N)C5)ccn3)CC2)no1` [compound 115, (2S,4R)-1-((2R)-2-(3-(2-(4-(2-((4-(3-(3-amino-6-(2-hydroxyphenyl)pyridazin-4-yl)-3,8-diazabicyclo[3.2.1]octan-8-yl)pyridin-2-yl)oxy)ethyl)piperazin-1-yl)ethoxy)isoxazol-5-yl)-3-methylbutanoyl)-4-hydroxy-N-((S)-1-(4-(1-methyl-1H-imidazol-2-yl)phenyl)ethyl)pyrrolidine-2-carboxamide], for which, under setting [1], the DC50 was over 30 nM. Moreover, the Dmax under setting [2] lay within 50 to 75%.
Consider `Cc1cc([C@@H](C(=O)N2C[C@H](O)C[C@H]2C(=O)N[C@@H](C)c2ccc(-c3scnc3C)cc2)[C@@H](C)COCCOc2cc(N3C4CCC3CN(c3cc(-c5ccccc5O)nnc3N)C4)ccn2)on1` [compound 301, (2S,4R)-1-((2S,3R)-4-(2-((4-(3-(3-amino-6-(2-hydroxyphenyl)pyridazin-4-yl)-3,8-diazabicyclo[3.2.1]octan-8-yl)pyridin-2-yl)oxy)ethoxy)-3-methyl-2-(3-methylisoxazol-5-yl)butanoyl)-4-hydroxy-N-((S)-1-(4-(4-methylthiazol-5-yl)phenyl)ethyl)pyrrolidine-2-carboxamide], for which the 50% degradation concentration (DC50) under setting [1] was in the range of 2.5 to 10 nM. The Dmax under setting [4] is over 75%.
With `Cc1ncsc1-c1ccc([C@@H](NC(=O)[C@@H]2C[C@@H](O)CN2C(=O)[C@@H](c2cc(OCCN3CCN(CCOc4cc(N5C6CCC5CN(c5cc(-c7ccccc7O)nnc5N)C6)ccn4)CC3)no2)C(C)C)C(=O)N(C)c2ccccc2)cc1` [compound 259, (2S,4R)-1-((2R)-2-(3-(2-(4-(2-((4-(3-(3-amino-6-(2-hydroxyphenyl)pyridazin-4-yl)-3,8-diazabicyclo[3.2.1]octan-8-yl)pyridin-2-yl)oxy)ethyl)piperazin-1-yl)ethoxy)isoxazol-5-yl)-3-methylbutanoyl)-4-hydroxy-N-((R)-2-(methyl(phenyl)amino)-1-(4-(4-methylthiazol-5-yl)phenyl)-2-oxoethyl)pyrrolidine-2-carboxamide], under setting [1], the DC50 is under 2.5 nM. Also, under setting [4], the maximal degradation (Dmax) is over 75%.
Take `CC(=O)N1CC(NC(=O)[C@@H]2C[C@@H](O)CN2C(=O)[C@@H](c2cc(OCCN3CCN(CCOc4cc(N5C6CCC5CN(c5cc(-c7ccccc7O)nnc5N)C6)ccn4)CC3)no2)C(C)C)(c2ccc(-c3scnc3C)cc2)C1` [compound 127, (2S,4R)-N-(1-acetyl-3-(4-(4-methylthiazol-5-yl)phenyl)azetidin-3-yl)-1-((2R)-2-(3-(2-(4-(2-((4-(3-(3-amino-6-(2-hydroxyphenyl)pyridazin-4-yl)-3,8-diazabicyclo[3.2.1]octan-8-yl)pyridin-2-yl)oxy)ethyl)piperazin-1-yl)ethoxy)isoxazol-5-yl)-3-methylbutanoyl)-4-hydroxypyrrolidine-2-carboxamide]: the half-maximal degradation concentration (DC50) under setting [1] lay in the range of 10 to 30 nM. Further, under setting [2], the Dmax is over 75%.
For the molecule `Cc1ncsc1-c1ccc([C@H](C)NC(=O)[C@@H]2C[C@@H](O)CN2C(=O)[C@H](c2onc(OCCN3CCN(CCOc4cc(N5C6CCC5CN(c5cc(-c7ccccc7O)nnc5N)C6)ccn4)CC3)c2Cl)C(C)C)cc1` [compound 54, (2S,4R)-1-((2S)-2-(3-(2-(4-(2-((4-(3-(3-amino-6-(2-hydroxyphenyl)pyridazin-4-yl)-3,8-diazabicyclo[3.2.1]octan-8-yl)pyridin-2-yl)oxy)ethyl)piperazin-1-yl)ethoxy)-4-chloroisoxazol-5-yl)-3-methylbutanoyl)-4-hydroxy-N-((S)-1-(4-(4-methylthiazol-5-yl)phenyl)ethyl)pyrrolidine-2-carboxamide], under setting [1], the DC50 was over 30 nM. The maximal degradation (Dmax) under setting [2] was over 75%.
Regarding `Cc1ncsc1-c1ccc([C@H](C)NC(=O)[C@@H]2C[C@@H](O)CN2C(=O)[C@H](c2cc(N3CCN(C(C)[C@H]4C[C@H](Oc5cc(N6C7CCC6CN(c6cc(-c8ccccc8O)nnc6N)C7)ccn5)C4)CC3)no2)C(C)C)cc1` (stereo partly drawn) [compound 703, (2S,4R)-1-((2S)-2-(3-(4-((1S)-1-((1r,3S)-3-((4-(3-(3-amino-6-(2-hydroxyphenyl)pyridazin-4-yl)-3,8-diazabicyclo[3.2.1]octan-8-yl)pyridin-2-yl)oxy)cyclobutyl)ethyl)piperazin-1-yl)isoxazol-5-yl)-3-methylbutanoyl)-4-hydroxy-N-((S)-1-(4-(4-methylthiazol-5-yl)phenyl)ethyl)pyrrolidine-2-carboxamide], the 50% degradation concentration (DC50) under setting [1] lay in the range of 2.5 to 10 nM. Besides, under setting [3], the greatest degradation seen (Dmax) was over 75%.

The record behind these values is US12539292B2, “BRM targeting compounds and associated methods of use” (Arvinas Operations, Inc., priority 2018, dated 2026).
